Experimental data published in US20050026219A1, “Process for label-free measurement of modified substrate” (Boehringer Ingelheim Pharma GmbH & Co. KG, priority 2001, published 2005).
Like-named read-outs stand apart in the source and are kept apart here. Ends that are not written are not given here.

Legend:
[1] = biological target: EGF-receptor kinase (EGF-RK) (Homo sapiens, UniProt P00533); conditions: for Optical layer thickness: PGT 10 μg/50 μl, EGF-RK 1 Unit/50 μl, EGF-RK buffer with Brij 35
Method: The quantity depends mainly on the volumes which are still to be pipetted, the buffer being intended to make the volume of the phosphorylation assay up to the total of 100 μl.
Then 10 μl of 10% (v/v) DMSO solution are added, or if a substance is to be tested for possible enzyme-modulating properties, 10 μl of a test substance, i.e. a possible inhibitor or activator, dissolved in 10% (v/v) of DMSO, are pipetted in.
If an enzymatic reaction is to take place, the enzyme is added at this stage.
Then the substrate is added. The amounts of the substrates Poly-(Glu, Tyr) 4:1, (SEQ ID NO.:2) M-2165 and (SEQ ID NO.:3) Raytide™ EL used are specified in each case.
The reaction of phosphorylation is started here by the addition of 10 μl of the 1 mM ATP solution.
The incubation time is 30 minutes at +30° C., for example.
After the end of the incubation period, 20 μl of antibody solution (1.6.) are pipetted in, for example. The receptor, in this case the antibody, is used in excess. The amount which corresponds to an excess can very easily be determined by anyone skilled in the art by means of experiments on binding to a sensor surface to which a substance with a receptor binding site is coupled, with increasing amounts of receptor. In the case of reactions of phosphorylation, increasing amounts of receptor are used with a constant amount of substrate and kinase.
The incubation time with the antibody may be, for example, 30 minutes at ambient temperature.
After the end of the incubation period 50 μl of incubation mixture are taken and pipetted into the prepared measuring cell with the sensor to whose surface is coupled a substance with a receptor binding site.
The layer thickness of the sensor is measured, for example, by Reflectometric Interference Spectroscopy (RIfS) using a SPEKOL 1100 simultaneous spectral photometer made by Messrs Zeiss Jena, modified according to Schmitt et al. 1997.
The receptor (in this case the antibody) is used in excess, so that even if there is a total enzymatic reaction (in this case phosphorylation) of the substrate at least a slight binding signal will still be obtained by the binding of the receptor (antibody) to the sensor surface.
The reaction of phosphorylation is started by the addition of ATP.
At the start of the experiment a control and a complete phosphorylation without the addition of inhibitor are carried out.

[2] = Layer thickness formation (binding) on the phospho-tyrosine-diamino-PEG 2000 sensor surface, RIfS; conditions: for Optical layer thickness (non-specific binding) / Optical layer thickness (binding): EGF-RK buffer
Method: (§1) A conventional aminodextrane (AMD) sensor or a diamino PEG 2000 sensor is used (e.g. Schütz A., 2000; a) Piehler J., et al., 1996; Universität Tübingen, Inst. f. Physikalische and Theoretische Chemie, Germany.)
(§2) 20 μl aliquots of the final solution are immediately added drop by drop to the sensor surface which is about 1 cm^2 in size, and incubated for 8 hours under DMF chamber saturation. Then the sensor is rinsed with DMF and dried in the air.

[3] = biological target: EGF-RK (Homo sapiens, UniProt P00533); conditions: cited from earlier work
[4] = Layer thickness formation (binding) on the phospho-tyrosine-AMD sensor surface, RIfS; conditions: for Optical layer thickness (increase): Hepes buffer pH 7.40, Raytide EL or antibody 1.0 μg/50 μl, kinase 1 Unit/50 μl
Method: as §1, §2
The buffer used is p60c-src-kinase buffer, pH=7.40, with the final concentrations of 50 mM of Hepes and 30 mM of magnesium chloride in the incubation mixture.
The layer thickness formation of p60c-src-kinase (1 Unit/50 μl) in the presence of Brij 35 is investigated. […] Increasing concentrations of Brij 35 (% v/v) are added to the buffer.
Use of alternative substrates, kinase and sensors in a process according to the invention. […] The buffer used is Hepes buffer pH=7.40 with 50 mM of Hepes and 30 mM of magnesium chloride. The buffer contains 0.5% v/v mercaptoethanol, 0.05% v/v Brij 35 and 10 μg/50 μl albumin.
First, the antibody, then the kinase and the substrate are measured on their own in order to be able to evaluate any non-specific binding.

[5] = Table 8: EGF-RK buffer with Brij 35, substrate 10 μg/50 μl, EGF-RK 0.1 Unit/50 μl, EGF 0.5 μg/50 μl

EGF-receptor kinase (EGF-RK), sequence (P00533 25-1210): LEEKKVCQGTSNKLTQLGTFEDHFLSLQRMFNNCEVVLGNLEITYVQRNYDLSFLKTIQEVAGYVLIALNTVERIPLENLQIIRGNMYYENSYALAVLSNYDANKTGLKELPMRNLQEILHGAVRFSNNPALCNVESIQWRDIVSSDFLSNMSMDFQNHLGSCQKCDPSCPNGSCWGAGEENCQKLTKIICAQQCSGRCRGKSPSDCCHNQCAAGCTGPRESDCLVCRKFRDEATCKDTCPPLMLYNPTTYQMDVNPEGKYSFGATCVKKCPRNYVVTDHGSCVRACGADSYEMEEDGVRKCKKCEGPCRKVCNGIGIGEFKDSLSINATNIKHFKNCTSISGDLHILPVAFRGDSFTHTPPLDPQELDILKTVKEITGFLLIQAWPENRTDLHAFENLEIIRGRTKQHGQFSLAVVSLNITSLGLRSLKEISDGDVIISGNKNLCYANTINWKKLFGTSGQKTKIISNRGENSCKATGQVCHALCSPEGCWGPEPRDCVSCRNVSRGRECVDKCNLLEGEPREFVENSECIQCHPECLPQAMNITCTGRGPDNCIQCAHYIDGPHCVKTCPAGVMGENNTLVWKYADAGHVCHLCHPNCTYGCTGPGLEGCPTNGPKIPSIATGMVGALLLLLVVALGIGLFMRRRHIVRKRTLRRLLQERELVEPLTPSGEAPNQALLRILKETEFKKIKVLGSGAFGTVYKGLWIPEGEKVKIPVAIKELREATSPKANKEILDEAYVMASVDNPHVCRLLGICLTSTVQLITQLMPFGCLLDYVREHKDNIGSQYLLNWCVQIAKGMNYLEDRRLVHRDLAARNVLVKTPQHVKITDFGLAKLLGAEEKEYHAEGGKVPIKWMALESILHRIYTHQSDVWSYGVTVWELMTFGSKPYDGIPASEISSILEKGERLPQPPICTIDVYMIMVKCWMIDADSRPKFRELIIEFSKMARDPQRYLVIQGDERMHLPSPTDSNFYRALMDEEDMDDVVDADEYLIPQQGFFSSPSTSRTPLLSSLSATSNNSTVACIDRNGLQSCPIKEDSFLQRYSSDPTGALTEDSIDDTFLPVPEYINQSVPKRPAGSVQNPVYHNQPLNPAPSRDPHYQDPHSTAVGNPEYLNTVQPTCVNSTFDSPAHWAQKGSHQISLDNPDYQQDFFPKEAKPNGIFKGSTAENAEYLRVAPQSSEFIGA
EGF-RK, sequence (P00533 25-1210): as above

Compound: COC(=O)/C=C/c1cc(O)ccc1O [erbstatin analogue, Erbstatin Analogue]
- Optical layer thickness ([1]; 10^-3M inhibitor): 1.170 nm
- Optical layer thickness ([1]; 10^-4M inhibitor): 0.728 nm
- Optical layer thickness ([1]; 10^-5M inhibitor): 0.702 nm
- Optical layer thickness ([1]; 10^-6M inhibitor): 0.442 nm
- Optical layer thickness ([1]; 10^-7M inhibitor): 0.489 nm
- Optical layer thickness ([1]; 10^-8M inhibitor): 0.526 nm
- Inhibition of phosphorylation ([1]; up to 10^-3M): incomplete even at higher concentrations

Compound: Poly-(Glu, Tyr) 4:1 [PGT]
- Optical layer thickness (non-specific binding) ([2]; 0.5 μg PGT): 0.064 nm
- Optical layer thickness (non-specific binding) ([2]; 1.0 μg PGT): 0.026 nm
- Optical layer thickness (non-specific binding) ([2]; 2.0 μg PGT): 0.000 nm
- Optical layer thickness (non-specific binding) ([2]; 5.0 μg PGT): 0.052 nm
- Optical layer thickness (non-specific binding) ([2]; 10 μg PGT): 0.065 nm
- Optical layer thickness (non-specific binding) ([2]; 20 μg PGT): 0.054 nm
- Optical layer thickness (non-specific binding) ([2]; 50 μg PGT): 0.113 nm
- Optical layer thickness (non-specific binding) ([2]; 100 μg PGT): 0.084 nm
- Optical layer thickness, component on its own [2, 5]: 0 nm
- Optical layer thickness, component on its own ([2]; Table 9: EGF-RK buffer with Brij 35, substrate 10 μg/50 μl, EGF-RK 2 Units/50 μl): 0 nm

Compound: O=CN/C=C/c1cc(O)ccc1O [Erbstatin]
- Inhibitor strength described in the literature [3]: weak inhibitor

Compound: Ac-Ile-Tyr-Gly-Glu-Phe-NH2 (Ac-IYGEF-NH2; also: phosphorylated, site not given here) [M-2165, Oligopeptide kinase substrate, Messrs; Bachem]
- Optical layer thickness, component on its own ([4]; Table 13: Hepes buffer pH 7.40, 0.5% mercaptoethanol, 0.05% Brij 35, albumin 10 μg/50 μl, M-2165 10 μg/50 μl, p60c-src-kinase 4 Units/50 μl): 0.230 nm
- Optical layer thickness, component on its own ([2]; Table 13 a: Hepes buffer pH 7.40, 0.5% mercaptoethanol, 0.05% Brij 35, albumin 10 μg/50 μl, M-2165 10 μg/50 μl, p60c-src-kinase 2 Units/50 μl): 0.285 nm

Compound: EGF: Epidermal Growth Factor, activator for phosphorylation with EGF-RK
- Optical layer thickness (binding) ([2]; EGF 0.5 Units + Brij 35 (0.01% v/v)): 0.320 nm
- Optical layer thickness (binding) ([2]; EGF 0.5 Units, no Brij 35): 0.814 nm
- Optical layer thickness (binding) ([2]; EGF 1.0 Units + Brij 35 (0.01% v/v)): 0.484 nm
- Optical layer thickness (binding) ([2]; EGF 1.0 Units, no Brij 35): 0.833 nm
- Optical layer thickness, component on its own [2, 5]: 0.355 nm

Compound: Lys-Lys-Lys-Gly-Pro-Trp-Leu-Glu-Glu-Glu-Glu-Glu-Ala-Tyr-Gly-Trp-Leu-Asp-Phe (KKKGPWLEEEEEAYGWLDF; also: phosphorylated modified substrate, site not given here) [Raytide ™ EL, Protein-tyrosine-kinase substrate, Messrs; Calbiochem]
- Optical layer thickness (increase) ([4]; with 0.001% Brij 35 (v/v)): 0.067 nm
- Optical layer thickness (increase) ([4]; with 0.002% Brij 35 (v/v)): 0.083 nm
- Optical layer thickness (increase) ([4]; with 0.01% Brij 35 (v/v)): 0.000 nm
- Optical layer thickness (increase) ([4]; with 0.02% Brij 35 (v/v)): 0.000 nm
- Optical layer thickness (increase) ([4]; with 0.1% Brij 35 (v/v)): 0.000 nm
- Optical layer thickness (increase) ([4]; with 0.2% Brij 35 (v/v)): 0.000 nm
- Optical layer thickness (increase) ([4]; without Brij 35): 0.169 nm
- Optical layer thickness, component on its own ([2]; Table 12: EGF-RK buffer with Brij 35, Raytide EL 2 μg/50 μl, EGF-RK 0.5 Units/50 μl): 0.127 nm
